# Tests used:
# [1] = system: Myrothecium verrucaria bilirubin oxidase (BOD), produced in Pichia pastoris; details: pH 6.5, with respect to ABTS; cited from earlier work
# [2] = target: Magnaporthe oryzae bilirubin oxidase (BOD), produced in Pichia pastoris, SEQ. ID. No.3 (SEQ. ID. No.1 with additional N-terminal serine) (Pyricularia oryzae, UniProt G4MQU0); assay type: biochemical; details: 37° C., citrate-phosphate buffer 50 mM pH 3.6, bilirubin 0 to 100 μM
compound,measurement,setting,value
"CCn1c(=NN=c2sc3cc(S(=O)(=O)O)ccc3n2CC)sc2cc(S(=O)(=O)O)ccc21 [ABTS, 2,2′-azino-bis(3-ethylbenzothiazoline-6-sulphonic acid)]",Km,[1],340 µM
conjugated bilirubin,Km,[2],18.5 µM
same,kcat,[2],28 s⁻¹

# Reference: patent US9260700B2 (priority 2011, dated 2016)
